Source: patent publication US11713306B2, “5-substituted difluoropiperidine compounds with blood-brain barrier penetrable capability” (Wayshine Biopharm Holding Limited, priority 2018, dated 2023)

Each molecule was assayed on PC-9Luc tumor cells (assay: PC-9Luc tumor cell mouse intracranial animal model). Conditions: monotherapy, 3 mg/kg, oral, twice a day, three weeks; vs control group.
Type: in vivo
Procedure: (§1) In the efficacy experiment of SKOV3 tumor cell mouse subcutaneous animal model (FIG. 1), the drug was administered on the 30th day after the tumor cells were planted and the drug administration was lasted for four weeks. […] In the efficacy experiment of the PC-9Luc tumor cell mouse intracranial animal model (FIG. 2), the drug was administered on the 10th day after the tumor cells were planted and the drug administration was lasted for three weeks. The second group of compound 1 was used as monotherapy, 10 mg/kg, oral dosing, twice a day; the third group of EGFR inhibitors (chemical name: (R)-6-[(3,3-difluoro-1-methylpiperidin-4-yl)oxy]-nitrogen-(3-ethynyl-2-fluorophenyl)-7-methoxyquinazolin-4-amine) was used as monotherapy, 3 mg/kg, oral dosing, twice a day; the fourth group of compound 1 combined with EGFR inhibitors.

Row | Compound | inhibition of intracranial tumor growth
1 | C#Cc1cccc(Nc2ncnc3cc(OC)c(O[C@@H]4CCN(C)CC4(F)F)cc23)c1F [EGFR inhibitor, (R)-6-[(3,3-difluoro-1-methylpiperidin-4-yl)oxy]-nitrogen-(3-ethynyl-2-fluorophenyl)-7-methoxyquinazolin-4-amine] | good inhibition on intracranial tumor growth

The molecules below were run on SKOV3 tumor cells (assay: SKOV3 tumor cell mouse subcutaneous animal model). Conditions: monotherapy, 10 mg/kg, oral, twice a day, four weeks; vs control group.
Type: in vivo
Procedure: as §1

Row | Compound | inhibition of tumor growth
2 | COc1cc(OC2CCN(C)CC2(F)F)c2c(Oc3ccc4[nH]c(C)cc4c3F)ncnc2c1 (racemic) [Compound 1, (R/S)-5-((3,3-difluoro-1-methylpiperidin-4-yl)oxy)-4-((4-fluoro-2-methyl-1H-indole-5-yl)oxy)-7-methoxyquinazoline] | good inhibition of tumor growth

Same assay, conditions: monotherapy, 20 mg/kg, oral, twice a day, four weeks; vs control group

Row | Compound | inhibition of tumor growth
3 | COc1cc(OC2CCN(C)CC2(F)F)c2c(Oc3ccc4[nH]c(C)cc4c3F)ncnc2c1 (racemic) [Compound 1, (R/S)-5-((3,3-difluoro-1-methylpiperidin-4-yl)oxy)-4-((4-fluoro-2-methyl-1H-indole-5-yl)oxy)-7-methoxyquinazoline] | good inhibition of tumor growth

What follows are molecules tested against VEGFR2 (Homo sapiens (Human), UniProt P35968) (assay: Kinase inhibition assay (Caliper, FAM-labeled peptide substrate)). Conditions: not given.
Type: biochemical
Procedure: (§2) 2.5 times of the kinase (VEGFR2 or EGFR or FYN) buffer solution was added to the compound diluted in equal concentration in the 384-well plate and incubated at 22-27° C. for 10 minutes, then 2.5 times of the FAM-labeled peptide substrate and ATP buffer solution were added therein and incubated at 28° C., and then the stop buffer solution was added to stop the reaction. The data was read by Caliper and the following formula was used to calculate the IC50 inhibition: Percent inhibition=(max-conversion)/(max-min)*100. Staurosporine was used as a control. In kinase inhibition assays, some of the compounds of the present invention are effective in inhibiting VEGFR2/FYN/EGFR, so they have the potential for treating or preventing cancer or central nervous system diseases (Table 1).

Sequence of VEGFR2 (P35968 20-1356): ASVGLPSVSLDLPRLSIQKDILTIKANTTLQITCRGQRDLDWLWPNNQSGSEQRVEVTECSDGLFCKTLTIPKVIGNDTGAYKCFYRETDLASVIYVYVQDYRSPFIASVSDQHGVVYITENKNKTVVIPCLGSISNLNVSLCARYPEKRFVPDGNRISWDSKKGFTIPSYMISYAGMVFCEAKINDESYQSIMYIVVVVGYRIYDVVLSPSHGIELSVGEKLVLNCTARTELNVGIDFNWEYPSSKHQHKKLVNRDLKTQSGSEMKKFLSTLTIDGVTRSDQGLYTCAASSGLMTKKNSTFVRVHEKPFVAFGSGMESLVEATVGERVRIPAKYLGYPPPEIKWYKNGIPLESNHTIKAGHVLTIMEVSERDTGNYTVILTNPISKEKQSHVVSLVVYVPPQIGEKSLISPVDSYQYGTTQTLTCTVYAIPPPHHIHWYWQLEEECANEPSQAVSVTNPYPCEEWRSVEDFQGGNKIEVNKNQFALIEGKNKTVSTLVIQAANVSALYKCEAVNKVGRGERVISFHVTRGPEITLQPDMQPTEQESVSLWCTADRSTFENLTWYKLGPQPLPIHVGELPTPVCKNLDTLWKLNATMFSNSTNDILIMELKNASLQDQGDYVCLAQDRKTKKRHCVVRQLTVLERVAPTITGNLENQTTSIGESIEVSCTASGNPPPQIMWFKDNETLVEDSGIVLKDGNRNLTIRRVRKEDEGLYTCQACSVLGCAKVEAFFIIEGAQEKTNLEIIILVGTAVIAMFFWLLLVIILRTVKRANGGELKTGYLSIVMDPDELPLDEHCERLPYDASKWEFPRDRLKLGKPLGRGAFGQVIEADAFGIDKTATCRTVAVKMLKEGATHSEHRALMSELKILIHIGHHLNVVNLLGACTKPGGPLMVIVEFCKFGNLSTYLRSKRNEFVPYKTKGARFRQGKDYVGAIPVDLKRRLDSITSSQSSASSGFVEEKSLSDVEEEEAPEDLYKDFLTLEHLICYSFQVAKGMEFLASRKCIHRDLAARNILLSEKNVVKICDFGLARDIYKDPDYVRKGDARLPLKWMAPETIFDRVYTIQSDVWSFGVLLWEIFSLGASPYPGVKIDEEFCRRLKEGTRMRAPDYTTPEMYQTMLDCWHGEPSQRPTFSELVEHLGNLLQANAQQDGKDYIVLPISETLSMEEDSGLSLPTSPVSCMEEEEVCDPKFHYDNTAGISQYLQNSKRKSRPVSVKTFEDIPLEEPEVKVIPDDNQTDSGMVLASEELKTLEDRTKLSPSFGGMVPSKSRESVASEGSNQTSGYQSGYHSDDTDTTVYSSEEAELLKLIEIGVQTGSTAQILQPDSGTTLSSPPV

Row | Compound | IC50
4 | COc1cc(O[C@H]2CCN(C)CC2(F)F)c2c(Oc3ccc4[nH]c(C)cc4c3F)ncnc2c1 [Compound 33, (S)-5-((3,3-difluoro-1-methylpiperidin-4-yl)oxy)-4-((4-fluoro-2-methyl-1H-indole-5-yl)oxy)-7-methoxyquinazoline] | < 10 nM
5 | COc1cc(O[C@@H]2CCN(C)CC2(F)F)c2c(Oc3ccc4[nH]c(C)cc4c3F)ncnc2c1 [Compound 18, (R)-5-((3,3-difluoro-1-methylpiperidin-4-yl)oxy)-4-((4-fluoro-2-methyl-1H-indole-5-yl)oxy)-7-deuterated methoxyquinazoline] | < 10 nM
6 | COc1cc(O[C@H]2CCN(C)CC2(F)F)c2c(Oc3cc(F)c4[nH]c(C)cc4c3F)ncnc2c1 [Compound 35, (S)-5-((3,3-difluoro-1-methylpiperidin-4-yl)oxy)-4-((4,7-difluoro-2-methyl-1H-indol-5-yl)oxy)-7-methoxyquinazoline] | < 10 nM
7 | COc1cc(O[C@@H]2CCN(C)CC2(F)F)c2c(Oc3cc(F)c4[nH]c(C)cc4c3F)ncnc2c1 [Compound 19, (R)-5-((3,3-difluoro-1-methylpiperidin-4-yl)oxy)-4-((4,7-difluoro-2-methyl-1H-indol-5-yl)oxy)-7-methoxyquinazoline] | < 10 nM
8 | COc1cc(OC2CCN(C)CC2(F)F)c2c(Oc3ccc4[nH]c(C)cc4c3F)ncnc2c1 (racemic) [Compound 2, (R/S)-5-((3,3-difluoro-1-methylpiperidin-4-yl)oxy)-4-((4-fluoro-2-methyl-1H-indole-5-yl)oxy)-7-deuterated methoxyquinazoline] | < 10 nM
9 | COc1cc(OC2CCN(C)CC2(F)F)c2c(Oc3ccc4[nH]c(C)cc4c3F)ncnc2c1 (racemic) [Compound 1, (R/S)-5-((3,3-difluoro-1-methylpiperidin-4-yl)oxy)-4-((4-fluoro-2-methyl-1H-indole-5-yl)oxy)-7-methoxyquinazoline] | < 10 nM
10 | COc1cc(O[C@@H]2CCN(C)CC2(F)F)c2c(Oc3ccc4[nH]c(C)cc4c3F)ncnc2c1 [Compound 17, (R)-5-((3,3-difluoro-1-methylpiperidin-4-yl)oxy)-4-((4-fluoro-2-methyl-1H-indole-5-yl)oxy)-7-methoxyquinazoline] | < 10 nM
11 | COc1cc(O[C@H]2CCN(C)CC2(F)F)c2c(Oc3ccc4[nH]c(C)cc4c3F)ncnc2c1 [Compound 34, (S)-5-((3,3-difluoro-1-methylpiperidin-4-yl)oxy)-4-((4-fluoro-2-methyl-1H-indole-5-yl)oxy)-7-deuterated methoxyquinazoline] | < 10 nM
12 | COc1cc(OC2CCN(C)CC2(F)F)c2c(Oc3cc(F)c4[nH]c(C)cc4c3F)ncnc2c1 (racemic) [Compound 3, (R/S)-5-((3,3-difluoro-1-methylpiperidin-4-yl)oxy)-4-((4,7-difluoro-2-methyl-1H-indol-5-yl)oxy)-7-methoxyquinazoline] | < 10 nM

What follows are molecules tested against FYN (Homo sapiens (Human), UniProt P06241) in the same assay as above. Conditions: not given.
Type: biochemical
Procedure: as §2

Sequence of FYN (P06241 whole entry): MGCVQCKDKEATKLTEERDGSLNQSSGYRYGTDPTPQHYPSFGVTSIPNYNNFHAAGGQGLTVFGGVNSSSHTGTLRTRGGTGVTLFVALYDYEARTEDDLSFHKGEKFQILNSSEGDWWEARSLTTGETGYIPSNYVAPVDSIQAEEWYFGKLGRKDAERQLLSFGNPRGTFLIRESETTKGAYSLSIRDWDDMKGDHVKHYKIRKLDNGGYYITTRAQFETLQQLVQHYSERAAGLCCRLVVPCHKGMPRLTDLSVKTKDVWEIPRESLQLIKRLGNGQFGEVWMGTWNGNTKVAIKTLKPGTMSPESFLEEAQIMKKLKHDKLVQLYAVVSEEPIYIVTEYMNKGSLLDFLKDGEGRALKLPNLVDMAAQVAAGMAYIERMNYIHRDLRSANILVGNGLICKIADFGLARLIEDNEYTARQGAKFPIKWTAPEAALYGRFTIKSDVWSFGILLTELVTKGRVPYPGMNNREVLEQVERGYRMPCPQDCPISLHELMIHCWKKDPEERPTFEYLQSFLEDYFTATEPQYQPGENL

Row | Compound | IC50
13 | COc1cc(O[C@@H]2CCN(C3COC3)CC2(F)F)c2c(Nc3c(Cl)ccc4c3OCO4)ncnc2c1 [Compound 30, (R)-5-((3,3-difluoro-1-(oxetane-3-yl)piperidin-4-yl)oxy)-N-(5-chlorobenzo[d][1,3]dioxolcyclopenten-4-yl)-7-methoxyquinazolin-4-amine] | < 100 nM
14 | COc1cc(O[C@@H]2CCN(C)CC2(F)F)c2c(Nc3c(F)ccc4c3OCO4)ncnc2c1 [Compound 21, (R)—N-(5-fluorobenzo[d][1,3]dioxolcyclopenten-4-yl)-5-((3,3-difluoro-1-methylpiperidin-4-yl)oxy)-7-methoxyquinazolin-4-amine] | < 100 nM
15 | COc1cc(O[C@@H]2CCN(C3COC3)CC2(F)F)c2c(Nc3c(F)ccc4c3OCO4)ncnc2c1 [Compound 29, (R)-5-((3,3-difluoro-1-(oxetane-3-yl)piperidin-4-yl)oxy)-N-(5-fluorobenzo[d] [1,3]dioxolcyclopenten-4-yl)-7-methoxyquinazolin-4-amine] | < 100 nM
16 | CCN1CCC(Oc2cc(OC)cc3ncnc(Nc4c(F)ccc5c4OCO5)c23)C(F)(F)C1 (racemic) [Compound 10, (R/S)-5-((1-ethyl-3,3-difluoropiperidin-4-yl)oxy)-N-(5-fluorobenzo[d] [1,3]dioxolcyclopenten-4-yl)-7-methoxyquinazolin-4-amine] | < 100 nM

Each molecule was assayed against EGFR (Homo sapiens (Human), UniProt P00533) in the same assay as above. Conditions: not given.
Type: biochemical
Procedure: as §2

Sequence of EGFR (P00533 25-1210, species assumed): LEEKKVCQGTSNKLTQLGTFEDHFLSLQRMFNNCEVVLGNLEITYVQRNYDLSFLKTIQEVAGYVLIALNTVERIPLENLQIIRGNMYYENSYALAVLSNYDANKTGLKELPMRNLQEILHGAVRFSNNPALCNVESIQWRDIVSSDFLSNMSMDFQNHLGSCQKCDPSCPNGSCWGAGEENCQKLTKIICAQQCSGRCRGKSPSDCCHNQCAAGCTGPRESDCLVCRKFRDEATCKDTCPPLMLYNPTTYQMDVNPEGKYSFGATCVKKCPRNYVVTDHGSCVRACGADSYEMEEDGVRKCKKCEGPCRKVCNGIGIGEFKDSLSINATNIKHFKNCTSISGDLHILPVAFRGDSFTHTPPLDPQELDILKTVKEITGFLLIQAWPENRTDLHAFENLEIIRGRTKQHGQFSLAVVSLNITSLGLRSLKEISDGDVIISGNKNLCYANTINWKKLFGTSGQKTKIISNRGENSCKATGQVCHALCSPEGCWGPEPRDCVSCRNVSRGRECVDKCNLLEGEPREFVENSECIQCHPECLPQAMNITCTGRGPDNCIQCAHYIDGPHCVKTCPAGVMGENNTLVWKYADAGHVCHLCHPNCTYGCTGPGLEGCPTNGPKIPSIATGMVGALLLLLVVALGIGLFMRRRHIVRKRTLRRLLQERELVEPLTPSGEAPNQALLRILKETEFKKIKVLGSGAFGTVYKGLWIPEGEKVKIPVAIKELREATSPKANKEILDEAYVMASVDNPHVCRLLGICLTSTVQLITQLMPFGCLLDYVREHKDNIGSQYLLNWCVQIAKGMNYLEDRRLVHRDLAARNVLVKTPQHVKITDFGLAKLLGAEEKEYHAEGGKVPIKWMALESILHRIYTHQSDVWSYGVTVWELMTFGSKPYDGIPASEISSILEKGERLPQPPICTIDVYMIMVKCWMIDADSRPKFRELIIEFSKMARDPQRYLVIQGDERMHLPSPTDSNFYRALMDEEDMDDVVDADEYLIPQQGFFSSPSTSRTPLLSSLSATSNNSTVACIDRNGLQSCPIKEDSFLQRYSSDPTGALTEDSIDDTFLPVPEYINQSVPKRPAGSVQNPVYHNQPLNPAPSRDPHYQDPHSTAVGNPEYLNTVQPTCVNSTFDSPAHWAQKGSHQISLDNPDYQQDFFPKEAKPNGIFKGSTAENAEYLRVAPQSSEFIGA

Row | Compound | IC50
17 | C#Cc1c(F)ccc(Nc2ncnc3cc(OC)cc(OC4CCN(C)CC4(F)F)c23)c1F (racemic) [Compound 16, (R/S)-5-((3,3-difluoro-1-methylpiperidin-4-yl)oxy)-N-(3-ethynyl-2,4-difluorophenyl)-7-methoxyquinazolin-4-amine] | < 10 nM
18 | C#Cc1cccc(Nc2ncnc3cc(OC)cc(OC4CCN(C)CC4(F)F)c23)c1F (racemic) [Compound 11, (R/S)-5-((3,3-difluoro-1-methylpiperidin-4-yl)oxy)-N-(3-ethynyl-2-fluorophenyl)-7-methoxyquinazolin-4-amine] | < 10 nM
19 | C#Cc1c(F)ccc(Nc2ncnc3cc(OC)cc(O[C@@H]4CCN(C)CC4(F)F)c23)c1F [Compound 32, (R)-5-((3,3-difluoro-1-methylpiperidin-4-yl)oxy)-N-(3-ethynyl-2,4-difluorophenyl)-7-methoxyquinazolin-4-amine] | < 10 nM
20 | C#Cc1c(F)ccc(Nc2ncnc3cc(OC)cc(O[C@H]4CCN(C)CC4(F)F)c23)c1F [Compound 48, (S)-5-((3,3-difluoro-1-methylpiperidin-4-yl)oxy)-N-(3-ethynyl-2,4-difluorophenyl)-7-methoxyquinazolin-4-amine] | < 10 nM
21 | C#Cc1cccc(Nc2ncnc3cc(OC)cc(O[C@H]4CCN(C)CC4(F)F)c23)c1F (single isomer, unassigned) [Compound 43] | < 10 nM
22 | C#Cc1cccc(Nc2ncnc3cc(OC)cc(O[C@@H]4CCN(C)CC4(F)F)c23)c1F [Compound 27, (R)-5-((3,3-difluoro-1-methylpiperidin-4-yl)oxy)-N-(3-ethynyl-2-fluorophenyl)-7-methoxyquinazolin-4-amine] | < 10 nM
